Experimental findings from ChEMBL document CHEMBL3046518, “Phytotoxic Compounds Cochlioquinones Are Inhibitors of Mitochondrial NADH-Ubiquinone Reductase” (J Pestic Sci, 1996) are described below.

Test [1] can be described thus: Inhibition of Bos taurus (bovine) heart mitochondrial electron transport protein complex 2/3 assessed per mg protein.
For test [2], the system named is Solanum tuberosum. Put plainly: Inhibition of Solanum tuberosum (potato) tuber succinate oxidase activity at 3600 nmol/mg protein.
Test [3] is described as follows: Inhibition of Bos taurus (bovine) heart mitochondrial electron transport protein complex 2 assessed per mg protein.
Test [4] is described as follows: Inhibition of Bos taurus (bovine) heart mitochondrial electron transport protein complex 4 assessed per mg protein.
Test [5] relates to Solanum tuberosum. Put plainly: Inhibition of Solanum tuberosum (potato) tuber electron transport protein complex 4 activity.
The nature of test [6]: Inhibition of Bos taurus (bovine) heart mitochondrial […] activity assessed per mg protein.
For test [7], the system named is Solanum tuberosum. Put plainly: Inhibition of Solanum tuberosum (potato) tuber electron transport protein complex 3 activity.
A short description of test [8]: Inhibition of Solanum tuberosum (potato) tuber proton-pump NADH dehydrogenase activity assessed per mg protein.
Test [9] can be described thus: Inhibition of Bos taurus (bovine) heart mitochondrial electron transport protein complex 3 assessed per mg protein.
A short description of test [10]: Inhibition of Bos taurus (bovine) heart mitochondrial electron transport protein complex 1 assessed per mg protein.
Test [11] has as its system Solanum tuberosum. The test can be described thus: Inhibition of Solanum tuberosum (potato) tuber electron transport protein complex 2 activity.

The source made the active and inactive calls. The calls are words filed in the database; no cut-off is given here.

`CC[C@H](C)C(=O)[C@@H](C)C1=CC(=O)C2=C(O[C@]3(C)CC[C@H]4O[C@@H](C(C)(C)O)CC[C@]4(C)[C@H]3C2)C1=O` [COCHLIOQUINONE B]: the IC50 in test [1] is more than 3600 nmol; in test [3], more than 3600 nmol; in [4], more than 3600 nmol; in test [6], 83 nmol; in test [8] it was 3000 nmol; in [9], more than 3600 nmol. This molecule registered an IC50 in [10] of 370 nmol. Moreover, the inhibition entry with Solanum tuberosum [2], in the test with Solanum tuberosum [5], in the test with Solanum tuberosum [7] and in the test with Solanum tuberosum [11] was “inactive” throughout.
`CC[C@H](C)[C@@H](OC(C)=O)[C@@H](C)C1=CC(=O)C2=C(O[C@]3(C)CC[C@H]4O[C@@H](C(C)(C)O)CC[C@]4(C)[C@H]3[C@@H]2O)C1=O` [COCHLIOQUINONE A] showed an IC50 in test [6] of 115 nmol.
Still for that read-out and setting: then `C/C=C(\C)[C@@H](OC(C)=O)[C@@H](C)C1=CC(=O)C2=C(O[C@]3(C)CC[C@H]4O[C@@H](C(C)(C)O)CC[C@]4(C)[C@H]3[C@@H]2O)C1=O` [STEMPHONE], with 160 nmol.
On the same count and under the same terms, then `CC[C@H](C)[C@@H](OC(C)=O)[C@@H](C)c1cc(O)c2c(c1O)O[C@]1(C)CC[C@H]3O[C@@H](C(C)(C)O)CC[C@]3(C)[C@H]1C2=O` [ISOCOCHLIOQUINONE A], with 56 nmol.
